Values quoted from earlier work as cited in US20150376254A1, “GAMMA-MSH ANALOGUES” (TXP Pharma GmbH, priority 2014, published 2015).

How the values were obtained:
[1] = test system: normal human lung fibroblasts (NHLF); conditions: TGFβ1-induced NHLF; at higher doses; detailed in U.S. provisional application 61/785,631
MC3r = MC3r (Homo sapiens, UniProt P41968); conditions: relative to MC4r; J. Med. Chem. 2005, 48, 1839-1848
MC5r = MC5r (Homo sapiens, UniProt P33032); conditions: J. Med. Chem. 2005, 48, 1839-1848
Chain of MC5r (P33032 whole entry): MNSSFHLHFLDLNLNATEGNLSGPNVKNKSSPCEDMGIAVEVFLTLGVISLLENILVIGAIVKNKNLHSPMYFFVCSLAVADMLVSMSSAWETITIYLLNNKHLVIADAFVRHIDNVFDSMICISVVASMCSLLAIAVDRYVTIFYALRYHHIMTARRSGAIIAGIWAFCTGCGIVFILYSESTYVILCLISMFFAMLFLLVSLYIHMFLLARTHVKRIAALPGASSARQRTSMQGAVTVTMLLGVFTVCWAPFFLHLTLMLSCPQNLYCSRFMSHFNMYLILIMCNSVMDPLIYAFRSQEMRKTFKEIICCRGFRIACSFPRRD

Chain of MC3r (P41968 whole entry): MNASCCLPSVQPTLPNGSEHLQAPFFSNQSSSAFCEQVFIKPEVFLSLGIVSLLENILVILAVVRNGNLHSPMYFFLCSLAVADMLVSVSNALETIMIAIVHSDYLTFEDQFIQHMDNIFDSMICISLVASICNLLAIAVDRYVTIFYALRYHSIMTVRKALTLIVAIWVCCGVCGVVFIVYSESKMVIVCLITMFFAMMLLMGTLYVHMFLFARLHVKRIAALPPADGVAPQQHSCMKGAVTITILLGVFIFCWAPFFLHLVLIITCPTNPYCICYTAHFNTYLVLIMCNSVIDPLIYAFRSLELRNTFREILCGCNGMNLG

ACTH: adrenocorticotropic hormone, a melanocortin peptide primarily binding MC2R (SYSMEHFRWGKPVGKKRRPVKVYPNGAEDESAEAFPLEF; Corticotropin; UniProt P01189 138-176, looked up)
ECM collagen [1]: statistically significant reduction

γ-MSH
affinity to the MC3r (MC3r): higher affinity | binding affinity against the MC5r (MC5r): weak
